“Also recorded” adds a separate entry of the source.
Legend:
ROCK2 = ROCK2 (Homo sapiens, UniProt O75116); assay: Kinase inhibition (ROCKI & ROCKII), radiometric 33P-ATP biochemical assay
Description: On-target activity against ROCK was measured in a biochemical assay, using the following reagents: Base Reaction buffer; 20 mM Hepes (pH 7.5), 10 mM MgCl2, 1 mM EGTA, 0.02% Brij35, 0.02 mg/ml BSA, 0.1 mM Na3VO4, 2 mM DTT, 1% DMSO. Required cofactors are added individually to each kinase reaction. The reaction procedure first involved the preparation of a peptide substrate in a freshly prepared reaction buffer. Required cofactors were then added to the substrate solution. ROCK (1 nM final concentration) was then delivered to the substrate solution. After gentle mix, DMSO solutions of the test compounds were added to the enzyme. Substrate mix ^33P-ATP (specific activity 0.01 μCi/μl final) was then delivered into the reaction mixture to initiate the reaction. The kinase reaction was incubated for 120 min. at room temperature. Reactions were then spotted onto P81 ion exchange paper (Whatman #3698-915). Filters were washed extensively in 0.1% Phosphoric acid. A radiometric count was then performed and IC50 values were subsequently determined.
The IC50 values obtained (in accordance with the protocol set forth above) are represented as follows: “+++” means IC50 below 0.1 μM, “++” means IC50 between 0.1 μM and 1 μM; “+” means IC50 between 1 and 10 μM and “ND” means “not determined yet”.

[1] = Stability towards drug metabolizing enzymes in lung S9; type: in vitro ADME, human; conditions: comparison table; for half-life at 1 μM: human, lung S9 (from smokers), read-out: t½ lung S9
Description: A 1 μM solution of the ROCK inhibitors is incubated with a reaction mixture containing lung S9 (from smokers) as well as the cofactors NADPH, UDPGA, PAPS and GSH. Samples are collected at 0, 15, 30 and 60 minutes post incubation. Negative control samples incubated with ROCK inhibitors and S9 fraction in the absence of cofactors are run in parallel. By using LC-MS/MS analysis, the percent of ROCK compounds remaining at each time point, the metabolic half-life of the ROCK compounds (expressed in minutes) and the metabolic half-life of the control compounds are determined.

[2] = Stability assay in rabbit aqueous humor; type: in vitro ADME; conditions: for half-life at 1 μM: rabbit, read-out: t½ AH
Description: Compounds are incubated at a concentration of 1 μM in rabbit aqueous humor (AH). Samples are taken at fixed time points and the remnant of compound is determined by LC-MS/MS after protein precipitation. Half life is expressed in minutes.

[3] = Stability in plasma, species not stated; type: in vitro ADME; conditions: for half-life at 1 μM: read-out: t½ Plasma
Description: (§1) Compounds are incubated at a concentration of 1 μM in rat (mice or rabbit) or human plasma. Samples are taken at fixed time points and the remnant of compound is determined by LC-MS/MS after protein precipitation. Half life is expressed in minutes.

[4] = system: MLC-T18/S19 phosphorylation; assay: Myosin light chain phosphorylation assay (ELISA) in A7r5 cells; type: cell-based, Rat; conditions: for EC50: MLC-T18/S19 phosphorylation, A7r5 cells, serum-free medium; for functional activity in the MLC phosphorylation assay (in words): FIG. 1
Description: Rat smooth muscle cell line A7r5 is used. The endogenous expression of ROCK esults in a constitutive phosphorylation of the regulatory myosin light chain at T18/S19. A7r5 cells were plated in DMEM supplemented with 10% FCS in multiwall cell culture plates. After serum starvation overnight, cells were incubated with compounds in serum-free medium.
Quantification of MLC-T18/S19 phosphorylation is assesses in 96 well-plates via ELISA using a phspho-MLC-T18/S19 specific antibody and a secondary detection antibody. Raw data were converted into percent substrate phosphorylation relative to high controls, which were set to 100%.
EC50 values were determined using GraphPad Prism 5.01 software using a nonlinear regression curve fit with variable hill slope.
The EC50 values obtained (in accordance with the protocols set forth above) are represented as follows: “+++” means EC50 below 0.3 μM, “++” means EC50 between 0.3 μM and 1 μM; “+” means EC50 between 1 and 10 μM and “−” means EC50>10 μM.

[5] = Stability assay in human plasma; type: in vitro ADME; conditions: 1 μM compound, LC-MS/MS, read-out: t½ human plasma
Description: as §1

[6] = aqueous humor, comparison table, aqueous humor
[7] = comparison table, plasma species not given
[8] = ROCK 1 nM, 120 min at room temperature
[9] = aqueous humor, 1 μM in rabbit aqueous humor

ROCK2, sequence (O75116 whole entry, species assumed): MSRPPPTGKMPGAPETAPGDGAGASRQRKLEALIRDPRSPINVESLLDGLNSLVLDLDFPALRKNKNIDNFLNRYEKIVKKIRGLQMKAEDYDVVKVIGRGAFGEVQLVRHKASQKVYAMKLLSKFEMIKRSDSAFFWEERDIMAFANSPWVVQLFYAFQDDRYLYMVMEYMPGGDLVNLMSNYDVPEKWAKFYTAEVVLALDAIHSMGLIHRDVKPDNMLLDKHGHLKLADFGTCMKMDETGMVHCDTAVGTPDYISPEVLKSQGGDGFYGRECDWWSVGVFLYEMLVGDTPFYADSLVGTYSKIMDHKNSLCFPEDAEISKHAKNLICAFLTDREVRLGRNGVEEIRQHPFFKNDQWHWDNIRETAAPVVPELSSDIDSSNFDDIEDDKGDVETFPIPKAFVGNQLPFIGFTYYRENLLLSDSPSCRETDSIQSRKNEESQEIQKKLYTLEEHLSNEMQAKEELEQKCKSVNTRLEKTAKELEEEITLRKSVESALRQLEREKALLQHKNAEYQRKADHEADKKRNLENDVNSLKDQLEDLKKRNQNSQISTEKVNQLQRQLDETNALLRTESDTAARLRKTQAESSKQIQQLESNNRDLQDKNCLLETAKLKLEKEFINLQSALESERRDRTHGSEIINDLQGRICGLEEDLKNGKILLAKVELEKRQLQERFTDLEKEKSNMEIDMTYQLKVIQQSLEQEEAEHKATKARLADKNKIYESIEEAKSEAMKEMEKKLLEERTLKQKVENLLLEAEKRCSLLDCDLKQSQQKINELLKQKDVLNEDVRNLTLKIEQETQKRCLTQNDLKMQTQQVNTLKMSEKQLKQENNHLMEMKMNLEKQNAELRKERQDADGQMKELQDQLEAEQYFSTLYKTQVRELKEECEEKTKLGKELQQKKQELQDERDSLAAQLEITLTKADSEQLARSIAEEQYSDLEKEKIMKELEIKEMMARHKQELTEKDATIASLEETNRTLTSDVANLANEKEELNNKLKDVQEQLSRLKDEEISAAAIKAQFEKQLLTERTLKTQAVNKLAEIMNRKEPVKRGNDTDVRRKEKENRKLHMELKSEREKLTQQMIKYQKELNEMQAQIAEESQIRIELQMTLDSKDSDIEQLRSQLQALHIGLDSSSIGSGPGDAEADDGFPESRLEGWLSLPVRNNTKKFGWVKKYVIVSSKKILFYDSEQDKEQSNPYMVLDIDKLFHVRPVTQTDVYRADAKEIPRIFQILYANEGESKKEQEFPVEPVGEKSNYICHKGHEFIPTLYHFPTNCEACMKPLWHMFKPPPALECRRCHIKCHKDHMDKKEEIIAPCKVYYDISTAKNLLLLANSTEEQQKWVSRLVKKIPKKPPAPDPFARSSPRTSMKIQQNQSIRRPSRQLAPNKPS

Row | IC50 (ROCK2; [8]) [nM] | half-life at 1 μM [5] [min] | half-life at 1 μM [2, 9] [min] | Structure (SMILES) | other results
1 | – | – | – | CCOC(=O)COc1cccc(CN2CCCC(Nc3ccc4[nH]ncc4c3)C2)c1 (racemic) [Compound 1.060, reference compound] | IC50 (ROCK2; comparison table): 7 nM; t½ lung S9 [1]: <5 min; half-life at 1 μM [1]: < 5 min; t½ AH ([2]; comparison table, aqueous humor): <5 min; half-life at 1 μM [2, 6]: < 5 min; t½ Plasma [3, 7]: <5 min; half-life at 1 μM [3, 7]: < 5 min
2 | – | – | – | CS(=O)(=O)Nc1cccc(CN2CCCC(Nc3ccc4[nH]ncc4c3)C2)c1 (centres unmarked) [Compound 1.091, reference compound] | IC50 (ROCK2; comparison table): 2.4 nM; IC50 ([4]; Rattus norvegicus, A7R5, comparison table, MLC phosphorylation, read-out: IC50 MLC-PP): 110 nM; half-life at 1 μM [1]: > 240 min; half-life at 1 μM [2, 6]: > 120 min; half-life at 1 μM [3, 7]: > 120 min; degradation in the tested media, including plasma (in words) ([3]; plasma, aqueous humor, lung S9): not degraded at a significant rate
3 | < 100 | 49 | – | O=C(OCC1CC1)c1cccc(CN2CCCC(Nc3cccc4cnccc34)C2)c1 (centres unmarked) [Compound 1] | –
4 | 100 to 1000 | 53 | – | O=C(OCc1ccccc1)c1cccc(CN2CCCC(Nc3cccc4cnccc34)C2)c1 (centres unmarked) [Compound 2] | –
5 | 100 to 1000 | 19 | – | O=C(Oc1ccccc1)c1cccc(CN2CCCC(Nc3cccc4cnccc34)C2)c1 (centres unmarked) [Compound 3] | –
6 | < 100 | – | – | CCCOC(=O)Cc1cccc(CN2CCCC(Nc3ccc4[nH]ncc4c3)C2)c1 (centres unmarked) [Compound 4] | –
7 | < 100 | – | – | O=C(OCCO)c1cccc(CN2CCCC(Nc3cccc4cnccc34)C2)c1 (centres unmarked) [Compound 5] | –
8 | 100 to 1000 | – | – | CCSC(=O)c1cccc(CN2CCCC(Nc3cccc4cnccc34)C2)c1 (centres unmarked) [Compound 6] | –
9 | < 100 | – | – | COC(=O)c1cccc(CN2CCCC(Nc3ccc4[nH]ncc4c3)C2)c1 (centres unmarked) [Compound 7] | EC50 ([4]; Rattus norvegicus): 1000 to 10000 nM
10 | 100 to 1000 | – | – | COC(=O)c1cccc(CN2CCCC(Nc3cccc4cnccc34)C2)c1 (centres unmarked) [Compound 8] | –
11 | < 100 | – | – | CCCOC(=O)c1cccc(CN2CCCC(Nc3ccc4[nH]ncc4c3)C2)c1 (centres unmarked) [Compound 9] | EC50 ([4]; Rattus norvegicus): 300 to 1000 nM
12 | < 100 | < 5 | – | O=C(Oc1ccccc1)c1cccc(CN2CCCC(Nc3ccc4[nH]ncc4c3)C2)c1 (centres unmarked) [Compound 10] | –
13 | < 100 | – | – | COC(=O)Cc1cccc(CN2CCCC(Nc3ccc4[nH]ncc4c3)C2)c1 (centres unmarked) [Compound 11] | –
14 | < 100 | – | – | COCCOC(=O)Cc1cccc(CN2CCCC(Nc3ccc4[nH]ncc4c3)C2)c1 (centres unmarked) [Compound 12] | –
15 | 100 to 1000 | – | – | CCCOC(=O)c1cccc(CN2CCCC(Nc3cccc4cnccc34)C2)c1 (centres unmarked) [Compound 13] | –
16 | < 100 | 5 | – | O=C(OCC1CCCO1)c1cccc(CN2CCCC(Nc3cccc4cnccc34)C2)c1 (centres unmarked) [Compound 15] | EC50 ([4]; Rattus norvegicus): 1000 to 10000 nM
17 | < 100 | – | – | CCSC(=O)c1cccc(CN2CCCC(Nc3ccc4[nH]ncc4c3)C2)c1 (centres unmarked) [Compound 16] | –
18 | < 100 | 25 | > 120 | O=C(OCC1CC1)c1cccc(CN2CCCC(Nc3ccc4[nH]ncc4c3)C2)c1 (centres unmarked) [Compound 17] | inhibitory activity against ROCK (in words) (ROCK2; summary of point C1.1): strong inhibitory activity; functional activity in the MLC phosphorylation assay (in words) [4]: display functional activity; EC50 ([4]; Rattus norvegicus): 300 to 1000 nM; half-life in aqueous humor compared with plasma (in words) ([2]; text summary of point C.2.3): significantly longer half-life in aqueous humor than in plasma; half life in plasma (in words) ([3]; point C.2.1): short half life
19 | < 100 | 26 | – | O=C(OCc1ccccc1)c1cccc(CN2CCCC(Nc3ccc4[nH]ncc4c3)C2)c1 (centres unmarked) [Compound 18] | –
20 | < 100 | – | – | O=C(OCCO)c1cccc(CN2CCCC(Nc3ccc4[nH]ncc4c3)C2)c1 (centres unmarked) [Compound 19] | EC50 ([4]; Rattus norvegicus): 300 to 1000 nM
21 | < 100 | – | – | COC(=O)c1cccc(CN2CCC(Nc3cccc4cnccc34)C2)c1 (centres unmarked) [Compound 20] | –

Row | IC50 (ROCK2; [8]) [nM] | half-life at 1 μM [5] [min] | half-life at 1 μM [2, 9] [min] | Structure (SMILES) | other results
22 | 100 to 1000 | – | – | CCOC(=O)c1cccc(CN2CCC(Nc3cccc4cnccc34)C2)c1 (centres unmarked) [Compound 21] | –
23 | < 100 | – | – | COC(=O)c1ccc(CN2CCCC(Nc3ccc4[nH]ncc4c3)C2)s1 (centres unmarked) [Compound 23] | –
24 | < 100 | – | – | COC(=O)c1ccc(CN2CCCC(Nc3ccc4[nH]ncc4c3)C2)[nH]1 (centres unmarked) [Compound 24] | –
25 | – | – | > 120 | COC(=O)c1ccc(NC(=O)c2cccc(CN3CCCC(Nc4cccc5cnccc45)C3)c2)cc1 (centres unmarked) [Compound 25] | –
26 | < 100 | 4 | 111 | O=C1OCC(CCNC(=O)c2cccc(CN3CCCC(Nc4cccc5cnccc45)C3)c2)O1 (centres unmarked) [Compound 27] | –
27 | < 100 | < 5 | > 120 | O=C1OCC(CCNC(=O)c2cccc(CN3CCCC(Nc4ccc5[nH]ncc5c4)C3)c2)O1 (centres unmarked) [Compound 29] | –
28 | < 100 | – | > 120 | COC(=O)c1cccc(NC(=O)c2cccc(CN3CCCC(Nc4cccc5cnccc45)C3)c2)c1 (centres unmarked) [Compound 30] | –
29 | – | < 5 | > 120 | COC(=O)Cc1cccc(NC(=O)c2cccc(CN3CCCC(Nc4cccc5cnccc45)C3)c2)c1 (centres unmarked) [Compound 31] | –
30 | < 100 | < 4 | 59 | COC(=O)Cc1cccc(NC(=O)c2cccc(CN3CCC(Nc4cccc5cnccc45)C3)c2)c1 (centres unmarked) [Compound 33] | –
31 | < 100 | – | > 120 | COC(=O)Cc1ccc(NC(=O)c2cccc(CN3CCCC(Nc4cccc5cnccc45)C3)c2)cc1 (centres unmarked) [Compound 34] | –
32 | < 100 | – | > 120 | COC(=O)c1ccc(NC(=O)c2cccc(CN3CCC(Nc4cccc5cnccc45)C3)c2)cc1 (centres unmarked) [Compound 35] | –
33 | < 100 | 24 | > 120 | COC(=O)Cc1ccc(NC(=O)c2cccc(CN3CCC(Nc4cccc5cnccc45)C3)c2)cc1 (centres unmarked) [Compound 36] | –
34 | < 100 | – | > 120 | COC(=O)c1cccc(NC(=O)c2cccc(CN3CCCC(Nc4ccc5[nH]ncc5c4)C3)c2)c1 (centres unmarked) [Compound 37] | –
35 | – | – | > 120 | COC(=O)Cc1cccc(NC(=O)c2cccc(CN3CCCC(Nc4ccc5[nH]ncc5c4)C3)c2)c1 (centres unmarked) [Compound 38] | –
36 | – | – | > 120 | COC(=O)c1ccc(NC(=O)c2cccc(CN3CCCC(Nc4ccc5[nH]ncc5c4)C3)c2)cc1 (centres unmarked) [Compound 39] | –
37 | – | 40 | > 120 | COC(=O)Cc1ccc(NC(=O)c2cccc(CN3CCCC(Nc4ccc5[nH]ncc5c4)C3)c2)cc1 (centres unmarked) [Compound 40] | –
38 | < 100 | 10 | > 120 | COC(=O)c1cccc(NC(=O)Cc2cccc(CN3CCCC(Nc4ccc5[nH]ncc5c4)C3)c2)c1 (centres unmarked) [Compound 41] | –
39 | < 100 | < 5 | – | COC(=O)Cc1cccc(NC(=O)Cc2cccc(CN3CCCC(Nc4ccc5[nH]ncc5c4)C3)c2)c1 (centres unmarked) [Compound 42] | –
40 | – | – | > 120 | COC(=O)c1ccc(NC(=O)Cc2cccc(CN3CCCC(Nc4ccc5[nH]ncc5c4)C3)c2)cc1 (centres unmarked) [Compound 43] | –
41 | < 100 | < 5 | – | COC(=O)Cc1ccc(NC(=O)Cc2cccc(CN3CCCC(Nc4ccc5[nH]ncc5c4)C3)c2)cc1 (centres unmarked) [Compound 44] | –
42 | – | – | – | O=C(O)c1cccc(CN2CCCC(Nc3ccc4[nH]ncc4c3)C2)c1 (centres unmarked) [Met1, 3-({3-[(1H-indazol-5-yl)amino]piperidin-1-yl}methyl)benzoic acid] | functional activity in the MLC phosphorylation assay (in words) [4]: functionally inactive compound; also recorded: devoid of functional activity; EC50 ([4]; Rattus norvegicus): > 10000 nM

Source: patent publication US9073905B2, “Rock inhibitors” (Amakem NV, priority 2011, dated 2015)
